Measured values: US20230127944A1, “BROAD-SPECTRUM CARBAPENEMS” (priority 2019, published 2023)
Converted amounts (≈) assume the structure as drawn.

Tests used:
Type in all cases: cell-based
[1] = tested on: S. aureus ATCC 33591 (methicillin-resistant); assay: broth microdilution MIC assay, S. aureus 33591; details: Staphylococcus aureus, ATCC33591; S. aureus 33591, methicillin-resistant; read-out: MIC, S. aureus 33591
Procedure: (§1) To determine the ability of test compounds to inhibit the growth of bacterial strains, classic cell-based broth microdilution MIC assays were employed. MIC assays are performed according to CLSI methods except where otherwise noted (CLSI, 2011 and CLSI, 2009). The reference strains S. aureus ATCC 29213 (methicillin sensitive), S. aureus ATCC 33591 (methicillin-resistant), E. coli ATCC 25922 (wild-type/QC strain), P. aeruginosa ATCC 27853 (wild-type/QC strain), and the clinical isolate P. aeruginosa PA 8 were used to determine the ability of the exemplary carbapenem compounds to inhibit bacterial growth. An expanded panel of methicillin resistance S. aureus (MRSA) and Pseudomonas was also used to determine the ability of exemplary carbapenem compounds to inhibit bacterial growth across a broader representation of those species. To determine activity in MRSA and in addition to S. aureus ATCC 33591, S. aureus USA 300 and USA 600, some of the most common clones found to cause human infection, were also used. To further gauge the impact on the carbapenem compounds due to various resistance mechanisms in Pseudomonas, the following strains were included: P. aeruginosa 35151 (hyper-permeable strain), P. aeruginosa ΔmexAB-OprM (an efflux pump knockout), and P. aeruginosa Paβ-173 (a clinical isolate of reduced carbapenem susceptibility). Briefly, cryo-preserved bacterial cultures of clinical strains are streaked for isolation on appropriate agar medium, in this case Mueller Hinton II agar. Following incubation to allow formation of colonies, these plates are sealed with parafilm and stored refrigerated for up to two weeks. For preparation of assay inocula and to ensure low variability, at least 5 colonies are picked from the agar plates with an inoculating loop and aseptically transferred to a culture tube containing 3 mL of Mueller-Hinton Broth (supplemented with divalent cations to required levels based on Manufacturers' specification). The broth culture is grown for 3-5 hours at 37° C. with shaking at 200 rpm. Meanwhile, 2-fold serial dilutions of test compounds are conducted in a 96 well plate with a final volume of 75 μL per well at 2-fold the final desired concentration. After the dilution plates are set up the growing cultures are then diluted in a cuvette containing MH II broth and the optical density is measured at 600 nm. Inocula are diluted such that 75 μL of this culture in Mueller-Hinton Broth results in a starting bacterial concentration of 5×10^5 CFU/mL when added to the dilution plates. The plates are incubated 16-20 hours at 37° C. The MIC is read visually as the lowest concentration well with no bacterial growth.

S. aureus USA 600 = assay: broth microdilution MIC assay, S. aureus USA600; details: Staphylococcus aureus; S. aureus USA600 (MRSA); read-out: MIC, S. aureus USA600
Procedure: as §1

[2] = tested on: P. aeruginosa ΔmexAB-OprM (an efflux pump knockout); assay: broth microdilution MIC assay, P. aeruginosa ΔmexAB-OprM; details: Pseudomonas aeruginosa, read-out: MIC, P. aeruginosa ΔmexAB-OprM
Procedure: as §1

[3] = tested on: P. aeruginosa 35151 (hyper-permeable strain); assay: broth microdilution MIC assay, P. aeruginosa 35151; details: Pseudomonas aeruginosa, read-out: MIC, P. aeruginosa 35151
Procedure: as §1

[4] = tested on: P. aeruginosa ATCC 27853 (wild-type/QC strain); assay: broth microdilution MIC assay, P. aeruginosa 27853; details: Pseudomonas aeruginosa, ATCC27853; read-out: MIC, P. aeruginosa 27853
Procedure: as §1

S. aureus USA 300 = assay: broth microdilution MIC assay, S. aureus USA300; details: Staphylococcus aureus; S. aureus USA300 (MRSA); read-out: MIC, S. aureus USA300
Procedure: as §1

[5] = tested on: E. coli ATCC 25922 (wild-type/QC strain); assay: broth microdilution MIC assay, E. coli 25922; details: Escherichia coli, ATCC25922; read-out: MIC, E. coli 25922
Procedure: as §1

P. aeruginosa Paeβ-17 = assay: broth microdilution MIC assay, P. aeruginosa Paeβ-17; details: Pseudomonas aeruginosa, read-out: MIC, P. aeruginosa Paeβ-17
Procedure: as §1

Row | SMILES | MIC [1] [µg/mL] | MIC (S. aureus USA 600) [µg/mL] | MIC [2] [µg/mL] | MIC [3] [µg/mL] | MIC [4] [µg/mL] | MIC (S. aureus USA 300) [µg/mL] | MIC [5] [µg/mL] | MIC (P. aeruginosa Paeβ-17) [µg/mL]
1 | C[C@@H](O)[C@H]1C(=O)N2C(C(=O)O)=C(S[C@@H]3CCN([C@H]4CC[C@H](NC(=N)N)CC4)C3)[C@H](C)[C@H]12 [Example 27, (4R,5S,6S)-3-(((R)-1-((1R,4R)-4-guanidinocyclohexyl)pyrrolidin-3-yl)thio)-6-((R)-1-hydroxyethyl)-4-methyl-7-oxo-1-azabicyclo[3.2.0]hept-2-ene-2-carboxylic acid] | 1 to 4 (≈ 2.21 to 8.86 µM) | 1 to 4 (≈ 2.21 to 8.86 µM) | 1 to 4 (≈ 2.21 to 8.86 µM) | < 1 | 8 to 32 (≈ 17.7 to 70.9 µM) | 1 to 4 (≈ 2.21 to 8.86 µM) | < 1 | 8 to 32 (≈ 17.7 to 70.9 µM)
2 | C[C@@H](O)[C@H]1C(=O)N2C(C(=O)O)=C(S[C@@H]3CCN(C4CCN(C)CC4)C3)[C@H](C)[C@H]12 [Example 29, (4R,5S,6S)-6-((R)-1-hydroxyethyl)-4-methyl-3-(((R)-1-(1-methylpiperidin-4-yl)pyrrolidin-3-yl)thio)-7-oxo-1-azabicyclo[3.2.0]hept-2-ene-2-carboxylic acid] | 8 to 32 (≈ 19.5 to 78.1 µM) | 1 to 4 (≈ 2.44 to 9.77 µM) | 1 to 4 (≈ 2.44 to 9.77 µM) | < 1 | 8 to 32 (≈ 19.5 to 78.1 µM) | 1 to 4 (≈ 2.44 to 9.77 µM) | < 1 | 8 to 32 (≈ 19.5 to 78.1 µM)
3 | C[C@@H](O)[C@H]1C(=O)N2C(C(=O)O)=C(S[C@@H]3CCN([C@@H]4CC[C@@H](NC(=N)N)C4)C3)[C@H](C)[C@H]12 [Example 30, (4R,5S,6S)-3-(((R)-1-((1R,3R)-3-guanidinocyclopentyl)pyrrolidin-3-yl)thio)-6-((R)-1-hydroxyethyl)-4-methyl-7-oxo-1-azabicyclo[3.2.0]hept-2-ene-2-carboxylic acid] | 8 to 32 (≈ 18.3 to 73.1 µM) | 1 to 4 (≈ 2.29 to 9.14 µM) | 1 to 4 (≈ 2.29 to 9.14 µM) | 1 to 4 (≈ 2.29 to 9.14 µM) | 8 to 32 (≈ 18.3 to 73.1 µM) | 1 to 4 (≈ 2.29 to 9.14 µM) | < 1 | > 32
4 | C[C@@H](O)[C@H]1C(=O)N2C(C(=O)O)=C(S[C@@H]3CCN([C@H]4CC[C@@H](NC(=N)N)C4)C3)[C@H](C)[C@H]12 [Example 31, (4R,5S,6S)-3-(((R)-1-((1S,3R)-3-guanidinocyclopentyl)pyrrolidin-3-yl)thio)-6-((R)-1-hydroxyethyl)-4-methyl-7-oxo-1-azabicyclo[3.2.0]hept-2-ene-2-carboxylic acid] | 1 to 4 (≈ 2.29 to 9.14 µM) | 1 to 4 (≈ 2.29 to 9.14 µM) | < 1 | < 1 | 1 to 4 (≈ 2.29 to 9.14 µM) | < 1 | < 1 | 8 to 32 (≈ 18.3 to 73.1 µM)
5 | C[C@@H](O)[C@H]1C(=O)N2C(C(=O)O)=C(SC3CN(C[C@H]4CCCN4)C3)[C@H](C)[C@H]12 [Example 32, (4R,5S,6S)-6-((R)-1-hydroxyethyl)-4-methyl-7-oxo-3-((1-(((R)-pyrrolidin-2-yl)methyl)azetidin-3-yl)thio)-1-azabicyclo[3.2.0]hept-2-ene-2-carboxylic acid] | 8 to 32 (≈ 21 to 83.9 µM) | 1 to 4 (≈ 2.62 to 10.5 µM) | 1 to 4 (≈ 2.62 to 10.5 µM) | < 1 | 8 to 32 (≈ 21 to 83.9 µM) | 1 to 4 (≈ 2.62 to 10.5 µM) | < 1 | 8 to 32 (≈ 21 to 83.9 µM)
6 | C[C@@H](O)[C@H]1C(=O)N2C(C(=O)O)=C(S[C@@H]3CCN(C[C@H]4CC[C@@H](NC(=N)N)CC4)C3)[C@H](C)[C@H]12 [Example 33, (4R,5S,6S)-3-(((R)-1-(((1S,4S)-4-guanidinocyclohexyl)methyl)pyrrolidin-3-yl)thio)-6-((R)-1-hydroxyethyl)-4-methyl-7-oxo-1-azabicyclo[3.2.0]hept-2-ene-2-carboxylic acid] | 1 to 4 (≈ 2.15 to 8.59 µM) | 1 to 4 (≈ 2.15 to 8.59 µM) | 1 to 4 (≈ 2.15 to 8.59 µM) | < 1 | 1 to 4 (≈ 2.15 to 8.59 µM) | < 1 | < 1 | 8 to 32 (≈ 17.2 to 68.7 µM)
7 | C[C@@H](O)[C@H]1C(=O)N2C(C(=O)O)=C(S[C@@H]3CCN([C@H]4CC[C@@H](NC(=N)N)CC4)C3)[C@H](C)[C@H]12 [Example 34, (4R,5S,6S)-3-(((R)-1-((1S,4S)-4-guanidinocyclohexyl)pyrrolidin-3-yl)thio)-6-((R)-1-hydroxyethyl)-4-methyl-7-oxo-1-azabicyclo[3.2.0]hept-2-ene-2-carboxylic acid] | 1 to 4 (≈ 2.21 to 8.86 µM) | 1 to 4 (≈ 2.21 to 8.86 µM) | 1 to 4 (≈ 2.21 to 8.86 µM) | < 1 | 1 to 4 (≈ 2.21 to 8.86 µM) | < 1 | < 1 | 8 to 32 (≈ 17.7 to 70.9 µM)
8 | C[C@@H](O)[C@H]1C(=O)N2C(C(=O)O)=C(S[C@@H]3CCN([C@@H]4CC[C@@H](N)C4)C3)[C@H](C)[C@H]12 [Example 35, (4R,5S,6S)-3-(((R)-1-((1R,3R)-3-aminocyclopentyl)pyrrolidin-3-yl)thio)-6-((R)-1-hydroxyethyl)-4-methyl-7-oxo-1-azabicyclo[3.2.0]hept-2-ene-2-carboxylic acid] | 1 to 4 (≈ 2.53 to 10.1 µM) | 1 to 4 (≈ 2.53 to 10.1 µM) | 1 to 4 (≈ 2.53 to 10.1 µM) | < 1 | 1 to 4 (≈ 2.53 to 10.1 µM) | 1 to 4 (≈ 2.53 to 10.1 µM) | < 1 | 8 to 32 (≈ 20.2 to 80.9 µM)
9 | C[C@@H](O)[C@H]1C(=O)N2C(C(=O)O)=C(S[C@@H]3CCN([C@H]4CC[C@@H](N)C4)C3)[C@H](C)[C@H]12 [Example 36, (4R,5S,6S)-3-(((R)-1-((1S,3R)-3-aminocyclopentyl)pyrrolidin-3-yl)thio)-6-((R)-1-hydroxyethyl)-4-methyl-7-oxo-1-azabicyclo[3.2.0]hept-2-ene-2-carboxylic acid] | 1 to 4 (≈ 2.53 to 10.1 µM) | 1 to 4 (≈ 2.53 to 10.1 µM) | 1 to 4 (≈ 2.53 to 10.1 µM) | < 1 | 1 to 4 (≈ 2.53 to 10.1 µM) | 1 to 4 (≈ 2.53 to 10.1 µM) | < 1 | 8 to 32 (≈ 20.2 to 80.9 µM)
10 | C[C@@H](O)[C@H]1C(=O)N2C(C(=O)O)=C(SC3CN(C4CCNC4)C3)[C@H](C)[C@H]12 (stereo partly drawn) [Example 37, (4R,5S,6S)-6-((R)-1-hydroxyethyl)-4-methyl-7-oxo-3-((1-(pyrrolidin-3-yl)azetidin-3-yl)thio)-1-azabicyclo[3.2.0]hept-2-ene-2-carboxylic acid] | 8 to 32 (≈ 21.8 to 87.1 µM) | 1 to 4 (≈ 2.72 to 10.9 µM) | 1 to 4 (≈ 2.72 to 10.9 µM) | < 1 | 8 to 32 (≈ 21.8 to 87.1 µM) | 1 to 4 (≈ 2.72 to 10.9 µM) | < 1 | 8 to 32 (≈ 21.8 to 87.1 µM)
